In patent US20250136606A1, “MODULATORS OF TRPML, THEIR COMPOSITIONS AND METHODS OF USE” (Caraway Therapeutics, Inc., priority 2021, published 2025):

Columns and labels:
Format in all cases: cell-based
Details in all cases: fluorescent calcium assay
TRPML1 = TRPML1 (Homo sapiens, UniProt Q9GZU1); assay: Fluorescent TRPML1 assay (Fluo4-AM calcium fluorescence in doxycycline-induced HEK-293 Trex cells)
Method in brief: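 HEK-293 Trex cells stably carrying human TRPML1 (surface-trafficking mutant) were induced overnight with 0.5 ug/mL doxycycline, loaded with 1 micromolar Fluo4-AM, and suspended in Ringer's with 10 mM calcium. Compounds at 20 micromolar to 6 nanomolar final, half-log steps, triplicate; fluorescence 480/540 nm gave percent activity versus controls and EC50 by non-linear regression.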

TRPML2 = target: T1, TRPML2 (Homo sapiens, UniProt Q8IZK6); assay: Fluorescent TRPML2 assay (performed as for TRPML1, substituting the TRPML2 subtype)
T1 construct: expressed in transfected cells
T1 sequence (Q8IZK6 1-566): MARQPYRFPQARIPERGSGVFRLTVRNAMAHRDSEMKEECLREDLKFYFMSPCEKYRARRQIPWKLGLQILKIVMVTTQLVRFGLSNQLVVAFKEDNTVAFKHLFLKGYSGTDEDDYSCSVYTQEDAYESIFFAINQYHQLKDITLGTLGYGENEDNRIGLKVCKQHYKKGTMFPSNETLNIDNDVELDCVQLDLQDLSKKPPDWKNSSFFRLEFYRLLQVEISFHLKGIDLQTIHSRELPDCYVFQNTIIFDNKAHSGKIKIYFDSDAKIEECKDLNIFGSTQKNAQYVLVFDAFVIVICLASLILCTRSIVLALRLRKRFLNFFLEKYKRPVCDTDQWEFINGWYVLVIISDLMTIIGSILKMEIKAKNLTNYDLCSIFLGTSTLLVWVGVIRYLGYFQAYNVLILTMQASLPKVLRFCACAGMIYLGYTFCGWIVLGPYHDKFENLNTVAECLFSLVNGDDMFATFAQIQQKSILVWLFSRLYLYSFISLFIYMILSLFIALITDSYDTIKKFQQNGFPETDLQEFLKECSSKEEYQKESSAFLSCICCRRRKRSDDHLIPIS
Method in brief: (§1)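 Agonist activity is scored as percent of plate controls from Fluo4 fluorescence after dye-loaded, doxycycline-induced HEK-293 Trex cells meet compound in high-calcium (10 mM) Ringer's. Compounds run in half-log dilutions from 20 micromolar final, in triplicate.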

TRPML3 = target: T2, TRPML3 (Homo sapiens, UniProt Q8TDD5); assay: Fluorescent TRPML3 assay (performed as for TRPML1, substituting the TRPML3 subtype)
T2 construct: expressed in transfected cells
T2 sequence (Q8TDD5 1-553): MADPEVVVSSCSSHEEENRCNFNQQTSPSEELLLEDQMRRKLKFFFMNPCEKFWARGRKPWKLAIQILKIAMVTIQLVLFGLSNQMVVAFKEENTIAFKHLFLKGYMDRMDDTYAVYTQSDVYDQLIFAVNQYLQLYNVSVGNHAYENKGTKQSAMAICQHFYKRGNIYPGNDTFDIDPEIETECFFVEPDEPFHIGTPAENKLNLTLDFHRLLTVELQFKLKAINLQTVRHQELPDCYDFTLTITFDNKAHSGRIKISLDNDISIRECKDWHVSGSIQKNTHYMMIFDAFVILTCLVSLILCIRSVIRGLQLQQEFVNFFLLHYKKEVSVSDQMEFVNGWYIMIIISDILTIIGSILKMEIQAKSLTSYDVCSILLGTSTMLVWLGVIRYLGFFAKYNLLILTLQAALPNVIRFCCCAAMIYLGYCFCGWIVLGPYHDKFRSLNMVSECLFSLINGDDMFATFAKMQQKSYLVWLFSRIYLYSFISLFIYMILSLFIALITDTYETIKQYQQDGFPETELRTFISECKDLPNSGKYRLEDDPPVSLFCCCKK
Method in brief: as §1

Sequence of TRPML1 (Q9GZU1 whole entry L15A/L16A/L577A/L578A, form open): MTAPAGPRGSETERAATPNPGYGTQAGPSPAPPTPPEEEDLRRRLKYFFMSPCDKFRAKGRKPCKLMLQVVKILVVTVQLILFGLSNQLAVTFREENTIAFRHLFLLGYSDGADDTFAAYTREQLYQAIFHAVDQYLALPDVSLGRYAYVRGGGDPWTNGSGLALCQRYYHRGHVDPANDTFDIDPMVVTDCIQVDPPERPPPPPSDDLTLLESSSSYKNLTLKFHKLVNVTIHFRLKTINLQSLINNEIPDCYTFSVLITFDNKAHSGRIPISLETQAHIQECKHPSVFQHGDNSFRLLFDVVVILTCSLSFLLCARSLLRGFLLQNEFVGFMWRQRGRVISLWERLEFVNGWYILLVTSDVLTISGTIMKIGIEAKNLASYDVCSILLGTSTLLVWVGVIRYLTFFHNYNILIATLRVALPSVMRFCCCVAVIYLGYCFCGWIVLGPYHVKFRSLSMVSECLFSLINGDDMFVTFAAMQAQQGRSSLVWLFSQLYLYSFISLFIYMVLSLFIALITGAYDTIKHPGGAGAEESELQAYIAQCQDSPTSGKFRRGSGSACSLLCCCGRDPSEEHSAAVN

Row | Structure (SMILES) | EC50 (TRPML1) | EC50 (TRPML2) | EC50 (TRPML3)
1 | Cc1cc(C#N)cc(-n2cc(-c3ccccc3F)c3c(N4CCN(C(=O)OC(C)(C)C)C[C@@H]4C)ncnc32)n1 [Compound 404, tert-butyl (S)-4-(7-(4-cyano-6-methylpyridin-2-yl)-5-(2-fluorophenyl)-7H-pyrrolo[2,3-d]pyrimidin-4-yl)-3-methylpiperazine-1-carboxylate] | < 100 nM | < 100 nM | < 100 nM
2 | C[C@H]1CN(C(=O)OC(C)(C)C)CCN1c1ncnc2c1c(N1CCC(C)(C)C1)cn2-c1cc(C#N)ccn1 [Compound 405, tert-butyl (S)-4-(7-(4-cyanopyridin-2-yl)-5-(3,3-dimethylpyrrolidin-1-yl)-7H-pyrrolo[2,3-d]pyrimidin-4-yl)-3-methylpiperazine-1-carboxylate] | < 100 nM | < 100 nM | < 100 nM
3 | C[C@H]1CN(C(=O)OC(C)(C)C)CCN1c1ncnc2c1c(N1CCCC1)cn2[C@@H]1C[C@@H]2CC[C@H]1C2 [Compound 406, tert-butyl-(S)-4-(7-((1S,2R,4R)-bicyclo[2.2.1]heptan-2-yl)-5-(pyrrolidin-1-yl)-7H-pyrrolo[2,3-d]pyrimidin-4-yl)-3-methylpiperazine-1-carboxylate] | 100 to 500 nM | 500 to 2000 nM | 500 to 2000 nM
4 | C[C@H]1CN(C(=O)OC(C)(C)C)CCN1c1ncnc2c1c(C1CC1)cn2C1CCCN(C#N)C1 (stereo partly drawn) [Compound 410, tert-butyl (3S)-4-(7-(1-cyanopiperidin-3-yl)-5-cyclopropyl-7H-pyrrolo[2,3-d]pyrimidin-4-yl)-3-methylpiperazine-1-carboxylate] | 500 to 2000 nM | > 2000 nM | 500 to 2000 nM
5 | C[C@H]1CN(C(=O)OC(C)(C)C)CCN1c1ncnc2c1c(C1CC1)cn2-c1cc(C#N)n(C)n1 [Compound 413, tert-butyl (S)-4-(7-(5-cyano-1-methyl-1H-pyrazol-3-yl)-5-cyclopropyl-7H-pyrrolo[2,3-d]pyrimidin-4-yl)-3-methylpiperazine-1-carboxylate] | 100 to 500 nM | 100 to 500 nM | < 100 nM
6 | C[C@H]1CN(C(=O)OC(C)(C)C)CCN1c1ncnc2c1c(N(C)C)cn2-c1cccc(Cl)c1 [Compound 415] | < 100 nM | 100 to 500 nM | < 100 nM
7 | C[C@@H]1CN(c2cn(-c3cc(C#N)ccn3)c3ncnc(N4CCN(C(=O)OC(C)(C)C)C[C@@H]4C)c23)CCO1 [Compound 417, tert-butyl (S)-4-(7-(4-cyanopyridin-2-yl)-5-((R)-2-methylmorpholino)-7H-pyrrolo[2,3-d]pyrimidin-4-yl)-3-methylpiperazine-1-carboxylate] | < 100 nM | 100 to 500 nM | < 100 nM
8 | C[C@@H]1CN(c2nccc3c2c(C2CC2)cn3-c2cc(F)cc(F)c2)CCN1C(=O)OC(C)(C)C [Compound 418, tert-butyl (R)-4-(3-cyclopropyl-1-(3,5-difluorophenyl)-1H-pyrrolo[3,2-c]pyridin-4-yl)-2-methylpiperazine-1-carboxylate] | < 100 nM | 100 to 500 nM | < 100 nM
9 | C[C@@H]1COCCN1c1cn(-c2cc(C#N)ccn2)c2ncnc(N3CCN(C(=O)OC(C)(C)C)C[C@@H]3C)c12 [Compound 419, tert-butyl (S)-4-(7-(4-cyanopyridin-2-yl)-5-((R)-3-methylmorpholino)-7H-pyrrolo[2,3-d]pyrimidin-4-yl)-3-methylpiperazine-1-carboxylate] | < 100 nM | 100 to 500 nM | < 100 nM
10 | CC(C)(C)OC(=O)N1CCN(c2ncnc3c2c(C2CC2)cn3-c2cc(C#N)ccn2)C(C)(C)C1 [Compound 421, tert-butyl 4-(7-(4-cyanopyridin-2-yl)-5-cyclopropyl-7H-pyrrolo[2,3-d]pyrimidin-4-yl)-3,3-dimethylpiperazine-1-carboxylate] | 100 to 500 nM | < 100 nM | < 100 nM
11 | CCN(CC)c1cn(-c2cc(C#N)ccn2)c2ncnc(N3CCN(C(=O)OC(C)(C)C(F)(F)F)C[C@@H]3C)c12 [Compound 422, 1,1,1-trifluoro-2-methylpropan-2-yl (S)-4-(7-(4-cyanopyridin-2-yl)-5-(diethylamino)-7H-pyrrolo[2,3-d]pyrimidin-4-yl)-3-methylpiperazine-1-carboxylate] | < 100 nM | 100 to 500 nM | < 100 nM
12 | CCCN(CC)c1cn(-c2cc(C#N)ccn2)c2ncnc(N3CCN(C(=O)OC(C)(C)C)C[C@@H]3C)c12 [Compound 423, tert-butyl (S)-4-(7-(4-cyanopyridin-2-yl)-5-(ethyl(propyl)amino)-7H-pyrrolo[2,3-d]pyrimidin-4-yl)-3-methylpiperazine-1-carboxylate] | < 100 nM | < 100 nM | < 100 nM
13 | CCN(CC)c1cn(-c2cc(C#N)ccn2)c2ncnc(N3CCN(C(=O)OC(C)(C)C)[C@H](C)C3)c12 [Compound 425, tert-butyl (R)-4-(7-(4-cyanopyridin-2-yl)-5-(diethylamino)-7H-pyrrolo[2,3-d]pyrimidin-4-yl)-2-methylpiperazine-1-carboxylate] | < 100 nM | 100 to 500 nM | < 100 nM

Further lines, results first:

Row | EC50 (TRPML1) | EC50 (TRPML2) | EC50 (TRPML3) | Structure (SMILES)
14 | < 100 nM | < 100 nM | < 100 nM | C[C@H]1CN(C(=O)OC(C)(C)C)CCN1c1ncnc2c1c(N1CCC1)cn2-c1cc(C#N)ccn1 [Compound 407, tert-butyl (S)-4-(5-(azetidin-1-yl)-7-(4-cyanopyridin-2-yl)-7H-pyrrolo[2,3-d]pyrimidin-4-yl)-3-methylpiperazine-1-carboxylate]
15 | < 100 nM | < 100 nM | < 100 nM | C[C@H]1CN(C(=O)OC(C)(C)C)CCN1c1ncnc2c1c(C1(C)CC1)cn2-c1cc(C#N)ccn1 [Compound 411, tert-butyl (S)-4-(7-(4-cyanopyridin-2-yl)-5-(1-methylcyclopropyl)-7H-pyrrolo[2,3-d]pyrimidin-4-yl)-3-methylpiperazine-1-carboxylate]
16 | 100 to 500 nM | 100 to 500 nM | < 100 nM | CC(C)(C)OC(=O)N1CCN(c2ncnc3c2c(-c2ccccc2F)cn3-c2cc(C#N)ccn2)C2CC21 (stereo not drawn) [Compound 412]
17 | 500 to 2000 nM | > 2000 nM | 500 to 2000 nM | C[C@H]1CN(C(=O)OC(C)(C)C)CCN1c1ncnc2c1c(C1CC1)cn2C1CC(C#N)C1 (stereo partly drawn) [Compound 414, tert-butyl (S)-4-(7-(3-cyanocyclobutyl)-5-cyclopropyl-7H-pyrrolo[2,3-d]pyrimidin-4-yl)-3-methylpiperazine-1-carboxylate]
18 | < 100 nM | < 100 nM | < 100 nM | C[C@@H]1CN(c2ncnc3c2c(N2CCCC2)cn3-c2cc(C#N)ccn2)CCN1C(=O)OC(C)(C)C [Compound 416, tert-butyl (R)-4-(7-(4-cyanopyridin-2-yl)-5-(pyrrolidin-1-yl)-7H-pyrrolo[2,3-d]pyrimidin-4-yl)-2-methylpiperazine-1-carboxylate]
19 | < 100 nM | < 100 nM | < 100 nM | CC(C)(C)OC(=O)N1CCN(c2ncnc3c2c(-c2ccccc2F)cn3-c2cc(C#N)ccn2)C(C)(C)C1 [Compound 420, tert-butyl 4-(7-(4-cyanopyridin-2-yl)-5-(2-fluorophenyl)-7H-pyrrolo[2,3-d]pyrimidin-4-yl)-3,3-dimethylpiperazine-1-carboxylate]
20 | < 100 nM | 100 to 500 nM | < 100 nM | CCN(CC)c1cn(-c2cc(C#N)ccn2)c2ncnc(N3CCN(C(=O)OC(C)(C)C)C[C@@H]3C)c12 [Compound 424, tert-butyl (S)-4-(7-(4-cyanopyridin-2-yl)-5-(diethylamino)-7H-pyrrolo[2,3-d]pyrimidin-4-yl)-3-methylpiperazine-1-carboxylate]
21 | < 100 nM | < 100 nM | < 100 nM | C[C@H]1CN(C(=O)OC(C)(C)C)CCN1c1ncnc2c1c(N(C)C)cn2-c1cc(C#N)ccn1 [Compound 426, tert-butyl (S)-4-(7-(4-cyanopyridin-2-yl)-5-(dimethylamino)-7H-pyrrolo[2,3-d]pyrimidin-4-yl)-3-methylpiperazine-1-carboxylate]
